Assay results reported in PMC6859649 (Free radical biology & medicine, 2017).
Where a name gives a salt, the structure may show the parent alone.

Molecular target: Myeloperoxidase (MPO) (Homo sapiens, UniProt P05164)
Assay: taurine chloramine chlorination assay
Format: biochemical

Sequence of Myeloperoxidase (MPO) (P05164 165-273): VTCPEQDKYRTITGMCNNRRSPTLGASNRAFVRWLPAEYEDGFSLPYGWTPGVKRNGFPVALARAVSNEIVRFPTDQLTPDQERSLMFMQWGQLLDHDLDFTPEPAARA
Sequence of Myeloperoxidase (MPO) (P05164 279-745): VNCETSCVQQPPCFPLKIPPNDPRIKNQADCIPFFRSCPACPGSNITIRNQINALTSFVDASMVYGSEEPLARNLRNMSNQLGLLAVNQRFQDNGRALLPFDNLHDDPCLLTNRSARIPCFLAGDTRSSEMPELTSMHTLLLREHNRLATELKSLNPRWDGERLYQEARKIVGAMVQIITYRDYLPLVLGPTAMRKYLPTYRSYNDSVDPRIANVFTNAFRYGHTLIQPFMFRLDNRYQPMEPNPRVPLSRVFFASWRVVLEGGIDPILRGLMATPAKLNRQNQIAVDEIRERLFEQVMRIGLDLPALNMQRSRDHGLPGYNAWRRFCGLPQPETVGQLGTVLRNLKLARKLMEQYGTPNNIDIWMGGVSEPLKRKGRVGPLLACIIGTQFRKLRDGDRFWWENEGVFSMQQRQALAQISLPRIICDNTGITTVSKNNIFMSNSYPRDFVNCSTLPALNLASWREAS

IC50: ~5 µM
SMILES: O=S(=O)(O)CCS [mesna, 2-mercaptoethanesulfonic acid sodium salt]
